Measured values taken from US9814754B2, “Combinations with a backbone-cyclized peptide” (POLYPHOR AG, priority 2012, dated 2017).
Square brackets hold non-standard residues; d marks the D form. dDab = NCC[C@@H](N)C(=O)O; Orn = NCCC[C@H](N)C(=O)O; Dab = NCC[C@H](N)C(=O)O

Tests used:
Format in all cases: in vivo
[1] = test system: Pseudomonas aeruginosa clinical isolate PAX11045; test: Murine pneumonia model, compound 1 alone (Reference 1)
Experimental: Efficacy in Murine Pneumonia Model Against Pseudomonas aeruginosa PAX11045 and Estimation of ED50
The efficacy and ED50 of the compound of formula (I) (“compound 1”) was determined against Pseudomonas aeruginosa clinical isolate PAX11045 in a pneumonia model in mice. Colony counts in the lungs and spleen were determined at 20 hours post treatment.
Fresh overnight colonies of PAX11045 from a 5% Horse Blood Agar plate were suspended in 0.9% sterile saline to approximately 10^8 CFU/ml and further diluted to approximately 5×10^7 CFU/ml. Female mice (DBA/2, outbred, 18-22 g, Charles River) were anesthetized with 0.08 ml of Zoletil (tiletamine+zolazepam) and inoculated via the nose with a pipette with 0.05 ml of the bacteria suspension containing approximately 10^6 CFU. 4 hours after inoculation, the mice were treated orally with 45 μl neurophen (20 mg ibuprofen/ml corresponding to approximately 30 mg/kg) as pain relief.
One vial was further 2-fold diluted with saline to 2.25, 1.125, 0.56 and 0.28 mg/ml. The mice were treated subcutaneously with 0.2 ml in the neck region with a single dose at 4 hours post infection with a dose calculation based on a mean animal weight of 20 g.
Colony counts were determined post inoculation at 4 hours (untreated mice) and 24 hours (treated and vehicle-only treated mice). Immediately after the mice were sacrificed, the lungs and spleens were collected and frozen at −20° C. After thawing, the organs were homogenized in 1 ml 0.9% saline. Each sample was then 10-fold diluted in saline and 20 μl spots were applied on blood agar plates. All agar plates were incubated 18-48 hours at 35° C. in ambient air.

[2] = test system: Pseudomonas aeruginosa clinical isolate PAX11045; test: Murine pneumonia model, compound 1 in combination with ertapenem (Example 1)
Experimental: The efficacy and ED50 of the compound of formula (I) (“compound 1”) in combination with ertapenem was determined against Pseudomonas aeruginosa clinical isolate PAX11045 in a pneumonia model in mice. Colony counts in lung were determined at 20 hours post treatment.
Fresh overnight colonies of PAX11045 from a 5% Horse Blood Agar plate were suspended in 0.9% sterile saline to approximately 10^8 CFU/ml and further diluted to approximately 5×10^7 CFU/ml. Female mice (DBA/2, outbred, 18-22 g, Charles River) were anesthetized with 0.1 ml of Zoletil and inoculated via the nose with a pipette with 0.05 ml of the bacteria suspension containing approximately 10^6 CFU. 4 hours after inoculation, the mice were treated orally with 45 μl neurophen (20 mg ibuprofen/ml corresponding to approximately 30 mg/kg) as pain relief.
1 g of ertapenem (Invanz™, MSD Denmark Aps) was dissolved in 10 ml 0.9% sterile saline to a concentration of 100 mg/ml and further diluted with saline to 5 mg/ml. The mice were treated subcutaneously with 0.2 ml in the neck region with a single dose at 3 hours post infection corresponding to 50 mg/kg on the basis of a mean animal weight of 20 g.
The mice were treated subcutaneously with 0.2 ml in the neck region with a single dose at 4 hours post infection with a dose calculation based on a mean animal weight of 20 g.
(§1) Colony counts were determined post inoculation at 4 hours (untreated mice) and 24 hours (treated and vehicle-only treated mice). Immediately after the mice were sacrificed, the lungs were collected and frozen at −20° C. After thawing, the organs were homogenized in 1 ml 0.9% saline. Each sample was then 10 fold diluted in saline and 20 μl spots were applied on blood agar plates. All agar plates were incubated 18-24 hours at 35° C. in ambient air.
The CFU/ml in the inoculum was determined to 7.65 log10 CFU/ml corresponding to 6.35 log10 CFU/mouse.
At 4 hours after infection the mean log10 CFU/lung was 5.14 and the CFU level remained at a similar level after 24 hours in the vehicle-only group.

[3] = test system: Pseudomonas aeruginosa clinical isolate PA9349; test: Murine pneumonia model, compound 1 in combination with ciprofloxacin (Example 3)
Experimental: Colony counts in lung were determined at 20 hours post treatment.
Fresh overnight colonies of PA9349 from a 5% Horse Blood Agar plate were suspended in 0.9% sterile saline to approximately 10^8 CFU/ml and further diluted to approximately 10^7 CFU/ml. Female mice (C57BL/6 […], outbred, 20-25 g, Hellenic Pasteur Institute) were anesthetized with ether and inoculated via the nose with a pipette with 0.05 ml of the bacteria suspension containing approximately 10^6 CFU. After inoculation, mice were treated with paracetamol suppositories as a pain relief.
The mice were treated subcutaneously with 0.2 ml in the neck region with a single dose at 3 hours post infection corresponding to 20 mg/kg on the basis of a mean animal weight of 20 g.
1 vial was further diluted with saline to 1, 0.8 and 0.4 mg/ml. The mice were treated subcutaneously with 0.25 ml (25 mg/kg dose) or 0.2 ml (for all other doses) in the neck region with a single dose at 4 hours post infection with a dose calculation based on a mean animal weight of 20 g.
as §1

[4] = compound 1 alone, s.c., murine lungs
[5] = in presence of 50 mg/kg ertapenem, murine lungs
[6] = in presence of 20 mg/kg ciprofloxacin, murine lungs

cyclo(TWI[Dab][Orn][dDab][Dab]W[Dab][Dab]AS[dP]P) [compound 1]
Bottom level ([1]; compound 1 alone, s.c. single dose 4 h post infection, murine lungs): −2.2 log10 CFU/ml
Top level ([1]; compound 1 alone, s.c. single dose 4 h post infection, murine lungs, sigmoidal dose-response model): 1.3 log10 CFU/ml
1 log killing dose [1, 4]: 8.1 mg/kg
2 log killing dose [1, 4]: 20 mg/kg
Emax [1, 4]: 3.5 log10 CFU/ml
Static dose [1, 4]: 1.55 mg/kg
ED50 ([1]; compound 1 alone, s.c., murine lungs, sigmoidal dose-response model (variable slope)): 4.33 mg/kg
CFU levels compared to vehicle treatment ([1]; compound 1 s.c. dose series, both organs (lungs and spleen), p<0.001 for the higher concentrations): concentration dependent significant reduction of the CFU levels
effect on bacterial loads ([2]; 2.75 mg/kg alone, lung, p<0.001): significant effect on reducing the bacterial loads
CFU levels compared to vehicle treatment ([2]; combination of compound 1 (dose series) and ertapenem 50 mg/kg, lung, p<0.01-p<0.001): concentration dependent significant reduction of the CFU levels
Top level ([2]; compound 1 s.c. in presence of 50 mg/kg ertapenem (s.c., 3 h post infection), murine lungs): −0.34 log10 CFU/ml
1 log killing dose [2, 5]: 1.14 mg/kg
2 log killing dose [2, 5]: 1.48 mg/kg
Bottom level [2, 5]: −2.32 log10 CFU/ml
Emax [2, 5]: 1.98 log10 CFU/ml
Static dose [2, 5]: 0.63 mg/kg
ED50 ([2]; in presence of fixed dose of 50 mg/kg ertapenem, murine lungs): 1.24 mg/kg
effect on bacterial loads ([3]; 5.5 mg/kg alone, lung, p<0.001): significant effect on reducing the bacterial loads
CFU levels compared to vehicle treatment ([3]; combination of compound 1 at 1.88-25 mg/kg and ciprofloxacin 20 mg/kg, lung, p<0.001): significant reduction of the CFU levels
Top level ([3]; compound 1 s.c. in presence of 20 mg/kg ciprofloxacin (s.c., 3 h post infection), murine lungs): −0.21 log10 CFU/ml
1 log killing dose [3, 6]: 0.45 mg/kg
2 log killing dose [3, 6]: 1.00 mg/kg
3log killing dose [3, 6]: 1.82 mg/kg
Bottom level [3, 6]: −4.17 log10 CFU/ml
Emax [3, 6]: 3.96 log10 CFU/ml
ED50 ([3]; in presence of fixed dose of 20 mg/kg ciprofloxacin, murine lungs): 1.55 mg/kg
